Measurements taken from patent US6737383B1, “Herbicidal oxadiazolidines” (priority 1999, dated 2004).

What was measured:
giant foxtail = assay: Test B pre/postemergence giant foxtail; assay type: in vivo, Setaria faberii; conditions: Preemergence, scale of 0 to 10 where 0 is no effect and 10 is complete control
Method in brief: (§1)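 Response is a visual 0-to-10 score relative to untreated plants, where 0 means no effect and 10 means complete control, taken twelve to sixteen days after application. Treatments went onto soil at planting and onto foliage of 1- to 4-leaf plants, using a surfactant-containing non-phytotoxic solvent.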

velvetleaf = assay: Test B pre/postemergence velvetleaf; assay type: in vivo, Abutilon theophrasti; conditions: Preemergence, scale of 0 to 10 where 0 is no effect and 10 is complete control
Method in brief: as §1

bedstraw = assay: Test B pre/postemergence bedstraw; assay type: in vivo, Galium aparine; conditions: Preemergence
Method in brief: as §1

blackgrass = assay: Test B pre/postemergence blackgrass; assay type: in vivo, Alopecurus myosuroides; conditions: Preemergence
Method in brief: as §1

rice = assay: Test B flood test rice; assay type: in vivo, Oryza sativa
Method in brief: (§2)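 Read-out is a visual response score from 0 (no effect) to 10 (complete control), assigned by comparison with untreated controls. Treatment was applied at the 2-leaf stage, and plants stayed in the greenhouse for twelve to sixteen days before scoring.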

sugar beet = assay: Test B pre/postemergence sugar beet; assay type: in vivo, Beta vulgaris; conditions: Preemergence, scale of 0 to 10 where 0 is no effect and 10 is complete control
Method in brief: as §1

duck salad = assay: Test B flood test duck salad; assay type: in vivo, Heteranthera limosa
Method in brief: as §2

pigweed = assay: Test B pre/postemergence pigweed; assay type: in vivo, Amaranthus retroflexus; conditions: Preemergence, scale of 0 to 10 where 0 is no effect and 10 is complete control
Method in brief: as §1

morningglory = assay: Test B pre/postemergence morningglory; assay type: in vivo, Ipomoea hederacea; conditions: Preemergence, scale of 0 to 10 where 0 is no effect and 10 is complete control
Method in brief: as §1

corn = assay: Test B pre/postemergence corn; assay type: in vivo, Zea mays; conditions: Preemergence
Method in brief: as §1

wild oat = assay: Test B pre/postemergence wild oat; assay type: in vivo, Avena fatua; conditions: Preemergence, scale of 0 to 10 where 0 is no effect and 10 is complete control
Method in brief: as §1

soybean = assay: Test B pre/postemergence soybean; assay type: in vivo, Glycine max; conditions: Preemergence, scale of 0 to 10 where 0 is no effect and 10 is complete control
Method in brief: as §1

crabgrass = assay: Test B pre/postemergence crabgrass; assay type: in vivo, Digitaria sanguinalis; conditions: Preemergence
Method in brief: as §1

smallflower flatsedge = assay: Test B flood test smallflower flatsedge; assay type: in vivo, Cyperus difformis
Method in brief: as §2

wheat = assay: Test B pre/postemergence wheat; assay type: in vivo, Triticum aestivum; conditions: Preemergence, scale of 0 to 10 where 0 is no effect and 10 is complete control
Method in brief: as §1

purple nutsedge = assay: Test B pre/postemergence purple nutsedge; assay type: in vivo, Cyperus rotundus; conditions: Preemergence, scale of 0 to 10 where 0 is no effect and 10 is complete control
Method in brief: as §1

cocklebur = assay: Test B pre/postemergence cocklebur; assay type: in vivo, Xanthium strumarium; conditions: Preemergence
Method in brief: as §1

rape = assay: Test B pre/postemergence rape; assay type: in vivo, Brassica napus; conditions: Preemergence, scale of 0 to 10 where 0 is no effect and 10 is complete control
Method in brief: as §1

bamyardgrass = assay: Test B flood test barnyardgrass; assay type: in vivo, Echinochloa crus-galli
Method in brief: as §2

surinam grass = assay: Test B pre/postemergence surinam grass; assay type: in vivo, Brachiaria decumbens; conditions: Preemergence
Method in brief: as §1

[1] = Rate 62 g/ha, scale of 0 to 10 where 0 is no effect and 10 is complete control
[2] = Rate 250 g/ha, scale 0 to 10 (0 no effect, 10 complete control)
[3] = Rate 500 g/ha, scale of 0 to 10 where 0 is no effect and 10 is complete control
[4] = Rate 125 g/ha, scale of 0 to 10 where 0 is no effect and 10 is complete control
[5] = Rate 62 g/ha, flood test species, Pre-emergence, visual evaluation after twelve to sixteen days
[6] = Rate 125 g/ha, under heading Pre-emergence, flood test species, visual evaluation after twelve to sixteen days
[7] = Rate 250 g/ha, Pre-emergence (flood test species), scale 0 to 10, 0 is no effect, 10 is complete control
[8] = Rate 500 g/ha, Pre-emergence section of Table B, 0 to 10 scale (0 no effect, 10 complete control)

CC(C)N(C(=O)n1oc(=O)n(C(C)C2CC2)c1=O)c1ccccc1 (stereo not drawn) [Compound 699]
9: Ducksalad plant response rating (duck salad; [7]) | Ducksalad plant response rating (duck salad; [8]) | Wild oats plant response rating (wild oat; Rate 62 g/ha) | S. Flatsedge plant response rating (smallflower flatsedge; [7]) | Plant response rating, B. signalgrass (surinam grass; [4]) | Plant response rating, B. signalgrass (surinam grass; [2])
8: Blackgrass plant response rating (blackgrass; [1]) | Ducksalad plant response rating (0 to 10 scale, 0 is no effect, 10 is complete control) (duck salad; [6]) | Plant response rating, Corn (corn; [2]) | S. Flatsedge plant response rating (smallflower flatsedge; [8]) | Barnyardgrass plant response rating (bamyardgrass; [7]) | Barnyardgrass plant response rating (bamyardgrass; [8]) | B. signalgrass plant response rating (surinam grass; [1])
7: S. Flatsedge plant response rating (0 to 10 scale, 0 is no effect, 10 is complete control) (smallflower flatsedge; [6])
0: Velvetleaf plant response rating (velvetleaf; Rate 62 g/ha) | Bedstraw plant response rating (bedstraw; [1]) | Plant response rating, Bedstraw (bedstraw; [2]) | Plant response rating, Bedstraw (bedstraw; [3]) | Plant response rating, Rice (0 to 10 scale, 0 is no effect, 10 is complete control) (rice; [5]) | Rice plant response rating (0 to 10 scale, 0 is no effect, 10 is complete control) (rice; [6]) | Soybean plant response rating (soybean; Rate 62 g/ha) | Wheat plant response rating (wheat; Rate 62 g/ha) | Nutsedge plant response rating (purple nutsedge; Rate 62 g/ha) | Plant response rating, Nutsedge (purple nutsedge; Rate 125 g/ha) | Cocklebur plant response rating (cocklebur; [1]) | Plant response rating, Cocklebur (cocklebur; [4]) | Plant response rating, Cocklebur (cocklebur; [2]) | Plant response rating, Cocklebur (cocklebur; [3]) | Rape plant response rating (rape; Rate 62 g/ha)
2: Plant response rating, Velvetleaf (velvetleaf; Rate 125 g/ha) | Morningglory plant response rating (morningglory; Rate 62 g/ha) | Plant response rating, Soybean (soybean; Rate 125 g/ha) | Plant response rating, Rape (rape; Rate 125 g/ha)
5: Rice plant response rating (rice; [7])
10: Giant foxtail plant response rating (giant foxtail; Rate 62 g/ha) | Plant response rating, Giant foxtail (giant foxtail; Rate 125 g/ha) | Plant response rating, Blackgrass (blackgrass; [4]) | Plant response rating, Blackgrass (blackgrass; [2]) | Plant response rating, Blackgrass (blackgrass; [3]) | Plant response rating, Wild oats (wild oat; Rate 125 g/ha) | Crabgrass plant response rating (crabgrass; [1]) | Plant response rating, Crabgrass (crabgrass; [4]) | Plant response rating, Crabgrass (crabgrass; [2]) | Plant response rating, B. signalgrass (surinam grass; [3])
4: Rice plant response rating (rice; [8]) | Plant response rating, Sugarbeets (sugar beet; Rate 125 g/ha) | Plant response rating, Morningglory (morningglory; Rate 125 g/ha) | Plant response rating, Barnyardgrass (0 to 10 scale, 0 is no effect, 10 is complete control) (bamyardgrass; [5]) | Barnyardgrass plant response rating (0 to 10 scale, 0 is no effect, 10 is complete control) (bamyardgrass; [6])
3: Sugarbeets plant response rating (sugar beet; Rate 62 g/ha) | Plant response rating, Ducksalad (0 to 10 scale, 0 is no effect, 10 is complete control) (duck salad; [5]) | Redroot pigweed plant response rating (pigweed; Rate 62 g/ha) | Plant response rating, Redroot pigweed (pigweed; Rate 125 g/ha) | Corn plant response rating (corn; [1]) | Plant response rating, Wheat (wheat; Rate 125 g/ha)
6: Plant response rating, Corn (corn; [4]) | Plant response rating, S. Flatsedge (0 to 10 scale, 0 is no effect, 10 is complete control) (smallflower flatsedge; [5])
